Data taken from patent US6372297B1, “Wood preservative oxathiazines” (Uniroyal Chemical Company, Inc., priority 1993, dated 2002).
In brackets after ≈: the same amount, converted by molar mass. Like-named read-outs stand apart in the source and are kept apart here.

Assays:
[1] = system: blue-stain fungi and molds; assay: Activity against blue-stain fungi and molds in a stick test (threshold concentrations); settings: beech sticks, 22° C., 90% relative humidity; for Threshold concentration (ppm), A. niger, score 0 / Threshold concentration (ppm), Aureobasidium, score 0 / Threshold concentration (ppm), Sclerophoma, score 0 / Threshold concentration (ppm), Trichoderma, score 0: minimum concentration to obtain score 0; for Threshold concentration (ppm), A. niger, score 1-2 / Threshold concentration (ppm), Aureobasidium, score 1-2 / Threshold concentration (ppm), Sclerophoma, score 1-2 / Threshold concentration (ppm), Trichoderma, score 1-2: minimum concentration to obtain score 1-2
Procedure: Representative compounds of this invention were dissolved in 50% ethanol. Each compound was then diluted serially using 50% ethanol. […] After three (3) hours, the solutions containing the test compounds were poured off and the treated sticks were allowed to dry in a sterile laminar air flow. Each treated stick was then placed in a Petri dish which had been previously seeded with inoculum. Two drops of a test fungal or spore suspension were pipetted onto the upper surface of each treated stick. The Petri dishes containing the treated sticks were incubated at 22° C. and 90% relative humidity. The treated sticks were evaluated after there was sufficient growth of fungus on control sticks (i.e., untreated sticks) incubated in the same manner. The following score system was used: 0: Stick free of fungal/mold growth 1: Traces of fungal growth on the stick 2: Slight growth (5 to 25% of the surface covered with fungal growth) 3: Moderate growth (25 to 50% covered with fungal growth) 4. Vigorous to maximum fungal growth (more than 50% growth) […]

[2] = system: molds and blue-stain fungi; assay: In vitro activity against molds and blue-stain fungi, poison plate assay (MIC); format: cell-based; settings: malt extract agar, complete inhibition
Procedure: The effect of the representative compounds on the growth of certain molds and blue-strain fungi were determined using a poison plate assay according to the following procedure: The solutions of the representative compounds prepared above were further diluted with sterile water to desired concentrations and poured into Petri dishes. Malt extract agar medium was then added aseptically to the Petri dishes and to Petri dishes containing no compound (controls). The Petri dishes were then shaken to provide a uniform distribution of the agar medium. Each Petri dish containing compound and each control Petri dish, was then inoculated with a fungus and incubated for a period of time sufficient to permit complete growth of the fungus in the respective control Petri dish. The Petri dishes containing compound were then examined to determine the amount of inhibition of fungi for each concentration of compound tested.

[3] = A. amstelodami, read-out: MIC (ppm) against A. amstelodami
[4] = Aspergillus niger, A. niger, read-out: MIC (ppm) against A. niger
[5] = Aspergillus versicolor, A. versicolor, read-out: MIC (ppm) against A. versicolor
[6] = Aureobasidium pullulans, A. pullulans, read-out: MIC (ppm) against A. pullulans
[7] = C. pilifera, read-out: MIC (ppm) against C. pilifera
[8] = Cladosporium cladosporioides, C. cladosporioides, read-out: MIC (ppm) against C. cladosporioides
[9] = Fusarium solani, F. solani, read-out: MIC (ppm) against F. solani
[10] = Geotrichum candidum, G. candidum, read-out: MIC (ppm) against G. candidum
[11] = P. purpurogenum, read-out: MIC (ppm) against P. purpurogenum
[12] = P. violacea, read-out: MIC (ppm) against P. violacea
[13] = Paecilomyces variotii, P. variotii, read-out: MIC (ppm) against P. variotii
[14] = S. atra, read-out: MIC (ppm) against S. atra
[15] = S. entoxylina, read-out: MIC (ppm) against S. entoxylina
[16] = Trichoderma viride, T. viride, read-out: MIC (ppm) against T. viride
[17] = U. atrum, read-out: MIC (ppm) against U. atrum

| SMILES | Threshold concentration (ppm), A. niger, score 0 [1] | Threshold concentration (ppm), A. niger, score 1-2 [1] | Threshold concentration (ppm), Aureobasidium, score 0 [1] | Threshold concentration (ppm), Aureobasidium, score 1-2 [1] | Threshold concentration (ppm), Sclerophoma, score 0 [1] | Threshold concentration (ppm), Sclerophoma, score 1-2 [1] | Threshold concentration (ppm), Trichoderma, score 0 [1] | Threshold concentration (ppm), Trichoderma, score 1-2 [1] | MIC (ppm) against A. amstelodami ([2]; A. amstelodami) | MIC (ppm) against A. niger ([2]; A. niger) | MIC (ppm) against A. pullulans ([2]; A. pullulans) | MIC (ppm) against A. versicolor ([2]; A. versicolor) | MIC (ppm) against C. cladosporioides ([2]; C. cladosporioides) | MIC (ppm) against C. pilifera ([2]; C. pilifera) | MIC (ppm) against F. solani ([2]; F. solani) | MIC (ppm) against G. candidum ([2]; G. candidum) | MIC (ppm) against P. purpurogenum ([2]; P. purpurogenum) | MIC (ppm) against P. variotii ([2]; P. variotii) | MIC (ppm) against P. violacea ([2]; P. violacea) | MIC (ppm) against S. atra ([2]; S. atra) | further results |
| --- | --- | --- | --- | --- | --- | --- | --- | --- | --- | --- | --- | --- | --- | --- | --- | --- | --- | --- | --- | --- | --- |
| CC1CS(=O)(=O)C(c2cccs2)=NO1 (stereo not shown) [Compound 51, 5,6-dihydro-6-methyl-3-(2-thienyl)-1,4,2-oxathiazine-4,4, dioxide] | 500 ppm | 250-500 ppm | >1000 ppm | 250-500 ppm | 100 ppm | 50-100 ppm | 1000 ppm | 500-1000 ppm | – | – | – | – | – | – | – | – | – | – | – | – | – |
| CCOC(=O)c1ccc(C2=NOCC[S+]2[O-])s1 (stereo not shown) [Compound 54] | 500 ppm | <250 ppm | 500 ppm | 250-500 ppm | 100 ppm | <50 ppm | 5000 ppm | 500-1000 ppm | – | – | – | – | – | – | – | – | – | – | – | – | – |
| N#Cc1ccc(C2=NOCC[S+]2[O-])s1 (stereo not shown) [Compound 57] | 500 ppm | <250 ppm | >1000 ppm | 250-500 ppm | 100 ppm | <50 ppm | 1000 ppm | 500-1000 ppm | 10 ppm | 10 ppm | >25 ppm | 10 ppm | 25 ppm | 10 ppm | 25 ppm | 25 ppm | 10 ppm | 25 ppm | 25 ppm | 10 ppm | MIC (ppm) against S. entoxylina ([2]; S. entoxylina): 10 ppm; MIC (ppm) against T. viride ([2]; T. viride): >25 ppm; MIC (ppm) against U. atrum ([2]; U. atrum): 25 ppm |
| N#Cc1ccc(C2=NOCCS2(=O)=O)s1 [Compound 58] | 500 ppm | <250 ppm | >1000 ppm | 500-1000 ppm | 100 ppm | <50 ppm | 5000 ppm | 1000-2500 ppm | 5 ppm | 5 ppm | 25 ppm | 5 ppm | 10 ppm | 5 ppm | 10 ppm | 25 ppm | 10 ppm | 25 ppm | 25 ppm | 5 ppm | MIC (ppm) against S. entoxylina ([2]; S. entoxylina): 5 ppm; MIC (ppm) against T. viride ([2]; T. viride): 25 ppm; MIC (ppm) against U. atrum ([2]; U. atrum): 10 ppm |
| [O-][S+]1CCON=C1c1ccc(Cl)s1 (stereo not shown) [Compound 60, 3-(5-Chloro-2-thienyl)-5.6-dihydro-1.4.2-oxathiazine-4-oxide] | 500 ppm | <250 ppm | 1000 ppm | 100-250 ppm | 100 ppm | <50 ppm | 2500 ppm | 500-1000 ppm | 5 ppm | 5 ppm | 25 ppm | 2.5 ppm | 25 ppm | 5 ppm | 10 ppm | 25 ppm | 25 ppm | 10 ppm | 10 ppm | 5 ppm | MIC (ppm) against S. entoxylina ([2]; S. entoxylina): 5 ppm; MIC (ppm) against T. viride ([2]; T. viride): 25 ppm; MIC (ppm) against U. atrum ([2]; U. atrum): 10 ppm |
| [O-][S+]1CCON=C1c1nc2ccccc2o1 (stereo not shown) [Compound 81] | 500 ppm | 250-500 ppm | >1000 ppm | 250-500 ppm | 250 ppm | <50 ppm | 2500 ppm | 500-1000 ppm | – | – | – | – | – | – | – | – | – | – | – | – | – |
| O=S1(=O)CCON=C1c1nc2ccccc2s1 [Compound 83, 5,6-dihydro-3-(2-benzothiazolyl)-1,4,2-oxathiazine 4,4-dioxide] | – | – | – | – | – | – | – | – | – | – | – | – | – | – | – | – | – | – | – | – | MIC [2, 3]: > 25 µg/mL; MIC [2, 4]: > 25 µg/mL; MIC [2, 5]: 25 µg/mL (≈ 93.2 µM); MIC [2, 6]: > 25 µg/mL; MIC [2, 7]: 10 µg/mL (≈ 37.3 µM); MIC [2, 8]: > 25 µg/mL; MIC [2, 9]: > 25 µg/mL; MIC [2, 10]: > 25 µg/mL; MIC [2, 11]: > 25 µg/mL; MIC [2, 12]: > 25 µg/mL; MIC [2, 13]: > 25 µg/mL; MIC [2, 14]: 5 µg/mL (≈ 18.6 µM); MIC [2, 15]: 10 µg/mL (≈ 37.3 µM); MIC [2, 16]: > 25 µg/mL; MIC [2, 17]: > 25 µg/mL |
| [O-][S+]1CCON=C1c1nc2ccccc2s1 (stereo not shown) [Compound 85, 5,6-dihydro-3-(2-benzothiazolyl)-1,4,2-oxathiazine-4-oxide] | 1000 ppm | <250 ppm | 1000 ppm | 250-500 ppm | 100 ppm | <50 ppm | 2500 ppm | 1000-2500 ppm | – | – | – | – | – | – | – | – | – | – | – | – | MIC [2, 3]: 5 µg/mL (≈ 19.8 µM); MIC [2, 4]: 5 µg/mL (≈ 19.8 µM); MIC [2, 5]: 2.5 µg/mL (≈ 9.91 µM); MIC [2, 6]: 25 µg/mL (≈ 99.1 µM); MIC [2, 7]: 2.5 µg/mL (≈ 9.91 µM); MIC [2, 8]: 25 µg/mL (≈ 99.1 µM); MIC [2, 9]: 25 µg/mL (≈ 99.1 µM); MIC [2, 10]: 10 µg/mL (≈ 39.6 µM); MIC [2, 11]: 10 µg/mL (≈ 39.6 µM); MIC [2, 12]: 10 µg/mL (≈ 39.6 µM); MIC [2, 13]: 25 µg/mL (≈ 99.1 µM); MIC [2, 14]: 2.5 µg/mL (≈ 9.91 µM); MIC [2, 15]: 5 µg/mL (≈ 19.8 µM); MIC [2, 16]: 25 µg/mL (≈ 99.1 µM); MIC [2, 17]: 10 µg/mL (≈ 39.6 µM) |
| Cc1ccc2oc(C3=NOCC[S+]3[O-])nc2c1 (stereo not shown) [Compound 89] | 500 ppm | 250-500 ppm | >1000 ppm | 100-250 ppm | 250 ppm | <50 ppm | 2500 ppm | 1000-2500 ppm | – | – | – | – | – | – | – | – | – | – | – | – | – |
